In assay [1] the target is HIS-TGF-βR1 T204D (Homo sapiens (Human), UniProt P36897, T204D). Briefly: HTRF probe displacement assay, HIS-TGF-βR1 T204D. The settings on record: read-out: TGFbr1 IC50, 1 nM HIS-TGF-βR1 T204D, 1 hour at room temperature.
Assay [2] has as its system TGF-β signaling (TGF-β pSMAD, MPC-11). The experiment in a line: AlphaScreen SureFire SMAD3 (p-Ser423/425) assay, inhibition of TGF-β signaling. In kind it is cell-based. The settings on record: Mus musculus, MPC-11, inhibition of TGF-β signaling, p-SMAD3 readout. On the technique in general: In Alpha technology, singlet oxygen from a donor bead excites a nearby acceptor bead.

The subject of assay [3] is GDF8 signaling (GDF pSMAD, MPC11). The experiment in a line: AlphaScreen SureFire SMAD3 (p-Ser423/425) assay, inhibition of GDF8 signaling. Type of assay: cell-based. The settings on record: Mus musculus, MPC-11, inhibition of GDF8 signaling, p-SMAD3 readout.

HIS-TGF-βR1 T204D, sequence (P36897 34-503 T204D): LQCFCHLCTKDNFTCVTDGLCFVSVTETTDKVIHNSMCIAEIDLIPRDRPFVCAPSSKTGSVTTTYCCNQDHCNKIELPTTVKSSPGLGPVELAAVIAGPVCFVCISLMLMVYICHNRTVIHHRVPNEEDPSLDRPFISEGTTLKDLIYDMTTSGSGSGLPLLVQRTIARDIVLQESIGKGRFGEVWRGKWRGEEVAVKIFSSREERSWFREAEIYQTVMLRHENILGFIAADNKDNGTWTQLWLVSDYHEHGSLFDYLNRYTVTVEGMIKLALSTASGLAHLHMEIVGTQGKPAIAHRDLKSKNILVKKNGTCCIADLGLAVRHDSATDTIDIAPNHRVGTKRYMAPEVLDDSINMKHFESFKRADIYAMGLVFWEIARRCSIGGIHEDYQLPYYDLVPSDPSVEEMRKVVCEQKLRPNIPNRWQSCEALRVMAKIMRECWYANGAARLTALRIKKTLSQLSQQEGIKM

The IC50 is the point on the concentration scale where inhibition reaches its midpoint. As for `NC(=O)c1cnc2ccc(-c3c(-c4ccc(F)c(Cl)c4)ncn3[C@H]3C[C@@H](O)C3)nn12` [140′, 6-(4-(3-chloro-4-fluorophenyl)-1-((1s,3s)-3-hydroxycyclobutyl)-1H-imidazol-5-yl)imidazo[1,2-b]pyridazine-3-carboxamide], in assay [1], the concentration for half-maximal inhibition (IC50) was determined as 2.8 nM.
`Cc1nc(-c2ccc(F)cc2)c(-c2ccc3ncc(C#N)n3c2)n1CC(F)F` [272A′, 6-(1-(2,2-difluoroethyl)-4-(4-fluorophenyl)-2-methyl-1H-imidazol-5-yl)imidazo[1,2-a]pyridine-3-carbonitrile]: in assay [1], the IC50 was determined as 251 nM.
Turning to `Nc1nc(-c2cccc(F)c2)c(-c2ccc3ncsc3c2)s1` [Compound 178, 5-(benzo[d]thiazol-6-yl)-4-(3-fluorophenyl)thiazol-2-amine], the half-maximal inhibitory concentration (IC50) in assay [2] came out at 1100 nM; in assay [3] it was 252 nM.
For `Nc1nc(-c2cccc(F)c2)c(-c2ccc3[nH]ncc3c2)s1` [Compound 179, 4-(3-fluorophenyl)-5-(1H-indazol-5-yl)thiazol-2-amine], the 50% inhibitory concentration (IC50) in assay [2] was 1280 nM; in assay [3] it was 268 nM.
As to `Nc1nc(-c2cccc(C(F)(F)F)c2)c(-c2ccc3nccnc3c2)s1` [Compound 180, 5-(quinoxalin-6-yl)-4-(3-(trifluoromethyl)phenyl)thiazol-2-amine], the results for the concentration for half-maximal inhibition (IC50) in assay [2] and in assay [3] were 621 nM and 301 nM, respectively.
As for `Fc1ccc(-c2ncsc2-c2ccc3ncsc3c2)cc1` [Compound 181, 6-(4-(4-fluorophenyl)thiazol-5-yl)benzo[d]thiazole], the IC50 turned out to be 4550 nM in assay [2] and 336 nM in assay [3].
Turning to `COc1ccc(-c2nc(N)sc2-c2ccc3nccnc3c2)cc1` [Compound 182, 4-(4-methoxyphenyl)-5-(quinoxalin-6-yl)thiazol-2-amine], the concentration for half-maximal inhibition (IC50) was found to be 1120 nM in assay [2] and 352 nM in assay [3].
For `Nc1nc(-c2cccc(F)c2)c(-c2ccc3nccnc3c2)s1` [Compound 183, 4-(3-fluorophenyl)-5-(quinoxalin-6-yl)thiazol-2-amine], the IC50 in assay [2] is 1480 nM; in assay [3] it was 365 nM.
On the same counts, the results for `COc1cccc(-c2nc(N)sc2-c2ccc3nccn3c2)c1` [Compound 184, 5-(imidazo[1,2-a]pyridin-6-yl)-4-(3-methoxyphenyl)thiazol-2-amine] are 1160 nM and 402 nM.
On the same counts, the results for `Nc1nc(-c2cccc(C(F)(F)F)c2)c(-c2ccc3cn[nH]c3c2)s1` [Compound 185, 5-(1H-indazol-6-yl)-4-(3-(trifluoromethyl)phenyl)thiazol-2-amine] are 2360 nM and 425 nM.
As for `COc1cccc(-c2nc(N)sc2-c2ccc3ncsc3c2)c1` [Compound 186, 5-(benzo[d]thiazol-6-yl)-4-(3-methoxyphenyl)thiazol-2-amine], the half-maximal inhibitory concentration (IC50) amounted to 1110 nM in assay [2] and 478 nM in assay [3].
As for `Nc1nc(-c2cccc(F)c2)c(-c2ccc3nccn3c2)s1` [Compound 187, 4-(3-fluorophenyl)-5-(imidazo[1,2-a]pyridin-6-yl)thiazol-2-amine], the IC50 in assay [2] amounted to 3100 nM; in assay [3], 481 nM.
Consider `CNc1nc(-c2ccc(F)cc2)c(-c2ccc3nccn3c2)s1` [Compound 188, 4-(4-fluorophenyl)-5-(imidazo[1,2-a]pyridin-6-yl)-N-methylthiazol-2-amine], for which the IC50 worked out at 365 nM in assay [2] and 784 nM in assay [3].

The record behind these values is patent publication US10287295B2, “TGF-β inhibitors” (Rigel Pharmaceuticals, Inc., priority 2015, dated 2019).
